The values that follow are results of earlier work, collected in patent US20250289851A1, “CYCLIC PEPTIDES FOR DELIVERING THERAPEUTICS” (ENTRADA THERAPEUTICS, INC., priority 2022, published 2025).

For data set [1] the following is noted: hydrophobicity value, scale of Hoop and Woods.
The conditions of data set [2]: hydrophobicity value, scale of Janin.
The conditions of data set [3]: hydrophobicity value, scale of Eisenberg and Weiss.
For data set [4] the following is noted: hydrophobicity value, scale of Engleman et al.
The conditions of data set [5]: hydrophobicity value, scale of Kyte and Doolittle.

In the case of `CC[C@H](C)[C@H](N)C(=O)O` [Ile, Isoleucine], the “Amino Acid Hydrophobicity, Hoop and Woods” value in data set [1] is −1.8. The “Amino Acid Hydrophobicity, Janin” value in data set [2] was 0.7. The “Amino Acid Hydrophobicity, Eisenberg and Weiss” value in data set [3] was 0.73. In addition, the “Amino Acid Hydrophobicity, Engleman et al.” value in data set [4] was 3.1. Also, the “Amino Acid Hydrophobicity, Kyte and Doolittle” value in data set [5] is on record as 4.5.
